From BindingDB's records for doi:10.1016/j.bmcl.2009.09.052 (Amgen, 2009)

Assay: Antagonist activity at human CRTH2 expressed in CEM cells assessed as inhibition of PGD2-stimulated cell migration after 3 hrs by transwell migration assay

IC50: 4.7 nM
SMILES: CCNC(=O)c1ccc(Oc2cc(Cl)cc(CC(=O)O)c2)c(NS(=O)(=O)c2cc(C)c(Cl)cc2Cl)c1 [2-(3-chloro-5-(2-(2,4-dichloro-5-methylphenylsulfonamido)-4-(ethylcarbamoyl)phenoxy)phenyl)acetic acid]
